Tests used:
[1] = target: Ku80 (80-kDa subunit of the DNA-PK holoenzyme), endogenous in HeLa and HeLa/HMGA2 cells (UniProt P13010); test: co-immunoprecipitation with anti-HA antibody from transiently transfected HeLa cells; reference set to 100%
[2] = tested on: HeLa and HeLa/HMGA2 cells; test: MTT cell viability assay; type: cell-based; settings: increasing concentrations, 72 hours
Text: HS578T, HCC1419, and CHO cells

[3] = tested on: Pa-4 and Pa-4/HMGA2 cells; test: MTT cell viability assay; type: cell-based; settings: Dox 0-7 μM or irinotecan 0-50 μM
[4] = target: Ku80 (80-kDa subunit of the DNA-PK holoenzyme), endogenous in HeLa and HeLa/HMGA2 cells (UniProt P13010); test: co-immunoprecipitation with anti-HA antibody from transiently transfected HeLa cells, Western for Ku80, quantitated and normalized
[5] = tested on: H2AX Ser139 phosphorylation; test: Western analysis of H2AX phosphorylation in Pa-4 and Pa-4/HMGA2 cells; type: cell-based; settings: 4 mM caffeine or 10 μM NU7026 1 hour, then with 1 μM Dox 2 hours
Method: To ascertain whether HMGA2 effects Dox-induced ATM signaling activation, phosphorylation of ATM Ser1981 and H2AX Ser139 was assayed in the presence and absence of Dox (2 μM in ATM assays, 1 μM in H2AX assays). At various timepoints after Dox treatment, cell lysates were removed and subjected to Western analyses using monoclonal anti-phospho-ATM antibodies (Ser1981), polyclonal anti-ATM antibodies (Santa Cruz Biotechnology, Santa Cruz, Calif.), monoclonal anti-phospho-H2AX antibodies ([…]) (Upstate Cell Signaling), or anti-H2AX antibodies. Control Western analyses were performed using monoclonal anti-actin antibodies. […] HeLa and HeLa/HMGA2 cells
(§1) NU7026 (Calbiochem, San Diego, Calif.) was dissolved in DMSO at 5 mM and stored at −20° C. […] Cell lysates were removed and subjected to Western analyses using monoclonal anti-phospho-H2AX (Ser 139) antibodies. Control Western analyses were performed using monoclonal anti-actin antibodies.

H2AX phosphorylation = test: Western analysis of H2AX phosphorylation in HS578T and HCC1419 cells; type: cell-based
Method: as §1
Experiments were repeated using HS578T and HCC1419 cells treated with 2 μM rather than 1 μM Dox.

ATM = ATM (Homo sapiens, UniProt Q13315); settings: reported (Veuger 2003; Willmore 2004); cited from earlier work
ATR = ATR (Homo sapiens, UniProt Q13535); settings: reported (Veuger 2003; Willmore 2004); cited from earlier work
DNA-PK = DNA-PK (Homo sapiens, UniProt P78527); settings: reported (Veuger 2003; Willmore 2004); cited from earlier work
Pa-4/HMGA2 cells = test: FACS analysis after caffeine and Dox (G2/M, sub-G1); type: cell-based
Method: Pa-4 and Pa-4/HMGA2 cells were seeded at 50-80% confluency in 35 mm dishes and serum starved overnight to synchronize cell cycle. […] Following treatment, cells were fixed in 70% ethanol overnight, stained with 20 μg/ml propidium iodide, and subjected to FACS analysis.
Apoptosis was quantified by assessing sub-G1 cell populations.

Pa-4 cells = settings: 4 mM caffeine 1 hour, then 1 μM Dox and 4 mM caffeine 48 hours
Ku80 = target: T1, Ku80 (Homo sapiens, UniProt P13010); test: Co-immunoprecipitation of HMGA2 constructs with Ku80 in transfected HeLa cells; type: cell-based; settings: transient transfection of HeLa cells
T1 construct: Co-immunoprecipitation assays were performed following transient transfection of HeLa cells with these constructs; endogenous in cells; host or cells: HeLa, transiently transfected with HA-HMGA2 constructs
Text: FIG. 18: Role of protein-protein and protein-DNA interactions in the HMGA/Ku80/Ku70 interaction. Individual wild type and engineered HMGA2 expression constructs was transfected into HeLa cells. The transfected cells were allowed to recover overnight in fresh medium prior to immunoprecipitation with an anti-HA antibody. Quantitation was done with BioRad Quantity One volume report program. After normalization with transfection efficiency and the expression level of HMGA2 and its mutant, percentage of Ku80/HMGA2 interaction is calculated by designating immunoprecipitated Ku80 with wild type HMGA2 as 100%.
To determine whether HMGA2 directly interacts with either subunit of the DNA-PK complex to dysregulate DNA-PK activation, co-immunoprecipitation assays were conducted using an anti-Ku70 antibody in HeLa and HeLa/HMGA2 cells. Cells were lysed for one hour in RIPA buffer (PBS, 1% NP40, 0.5% sodium deoxycholate, 0.1% SDS) supplemented with PMSF, aprotinin, and sodium orthovanadate immediately before use. The cell lysates were centrifuged at 10,000 rpm for 10 minutes and supernatants were collected. Protein concentrations were determined using Bradford protein assay. […] Samples were then analyzed by Western analyses. […]

HeLa cells = test: MTT viability of Dox-treated HeLa cells transfected with HMGA2 constructs; type: cell-based; settings: transient transfection, Dox for 72 hours
Method: FIG. 19: Correlation between HMGA2 binding of Ku80 and chemosensitization towards Dox. HeLa cells were transfected with individual HMGA2 wild type and engineered constructs and allowed to recover overnight prior to reseeding for cell viability assay. Cells were treated with Dox for 72 hours and followed by MTT assays. ** denotes p<0.01.
To elucidate the relevance of HMGA2 complex formation with Ku80/Ku70, the viability of Dox-treated HeLa cells transfected with HMGA2 or its engineered mutants was examined. […] The augmented resistance to Dox, relative to that of vector-transfected HeLa cells, by HMGA2(Δ83-109) and HMGA2(4P/A) mutants may be due to protein-protein interactions arising from the remaining portion of HMGA2.

[6] = tested on: HeLa, HeLa/HMGA2, HeLa/HMGA2(2K/R) cells; test: MTT cell viability assay; type: cell-based; settings: stable expression in HeLa cells, 72 hours
Method: FIG. 14: Association of HMGA2-dependent chemosensitization with HMGA2 SUMOylation. HeLa, HeLa/HMGA2, HeLa/HMGA2(2K/R) cells were subjected to treatment with increasing concentrations of Dox (upper panel) or cisplatin (lower panel) for 72 hours, as indicated. Cell viabilities were assessed using MTT assays. * denotes p<0.05; ** denotes p<0.01.
HMGA2 is a SUMOylation target (Cao, X. and Ann, D. K., unpublished observation). To investigate whether SUMOylation is involved in HMGA2-mediated chemosensitization, an HMGA2 mutant was constructed that carried Lysine to Arginine (Lys→Arg) point mutations at residues 66 and 67. These residues correspond to the SUMOyalation site (FIG. 13). The construct (HMGA2(2K/R)) was generated using previously described HA-HMGA2/pcDNA3.1 (Zentner 2001) as a template in conjunction with GeneEditor™ in vitro Site-Directed Mutagenesis System (Promega) and the mutagenesis primer set forth in SEQ ID NO:14. Desired mutations were confirmed by DNA sequencing analyses.

Ku80 (80-kDa subunit of the DNA-PK holoenzyme), endogenous in HeLa and HeLa/HMGA2 cells, sequence (P13010 2-732 limits assumed): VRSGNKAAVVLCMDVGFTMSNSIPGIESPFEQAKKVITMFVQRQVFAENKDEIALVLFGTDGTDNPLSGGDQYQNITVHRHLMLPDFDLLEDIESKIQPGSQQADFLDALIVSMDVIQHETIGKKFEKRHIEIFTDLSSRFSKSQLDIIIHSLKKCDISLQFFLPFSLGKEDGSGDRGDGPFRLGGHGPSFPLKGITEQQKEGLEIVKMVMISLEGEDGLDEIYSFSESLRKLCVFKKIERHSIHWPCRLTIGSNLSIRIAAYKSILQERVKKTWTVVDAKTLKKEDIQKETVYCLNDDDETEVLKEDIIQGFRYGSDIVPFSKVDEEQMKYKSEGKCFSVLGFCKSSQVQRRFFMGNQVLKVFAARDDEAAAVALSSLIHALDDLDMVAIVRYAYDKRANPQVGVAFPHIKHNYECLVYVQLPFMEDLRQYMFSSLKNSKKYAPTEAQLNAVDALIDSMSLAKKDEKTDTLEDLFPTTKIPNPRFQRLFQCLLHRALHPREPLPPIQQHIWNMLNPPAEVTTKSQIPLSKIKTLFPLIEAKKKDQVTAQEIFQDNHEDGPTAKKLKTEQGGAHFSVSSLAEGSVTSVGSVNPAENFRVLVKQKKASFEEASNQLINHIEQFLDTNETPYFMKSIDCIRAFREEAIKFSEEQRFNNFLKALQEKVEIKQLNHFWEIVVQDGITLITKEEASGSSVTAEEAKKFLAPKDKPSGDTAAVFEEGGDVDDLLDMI
T1 sequence (P13010 2-732 limits assumed): as above
T1 sequence (P12956 2-609 partner limits assumed): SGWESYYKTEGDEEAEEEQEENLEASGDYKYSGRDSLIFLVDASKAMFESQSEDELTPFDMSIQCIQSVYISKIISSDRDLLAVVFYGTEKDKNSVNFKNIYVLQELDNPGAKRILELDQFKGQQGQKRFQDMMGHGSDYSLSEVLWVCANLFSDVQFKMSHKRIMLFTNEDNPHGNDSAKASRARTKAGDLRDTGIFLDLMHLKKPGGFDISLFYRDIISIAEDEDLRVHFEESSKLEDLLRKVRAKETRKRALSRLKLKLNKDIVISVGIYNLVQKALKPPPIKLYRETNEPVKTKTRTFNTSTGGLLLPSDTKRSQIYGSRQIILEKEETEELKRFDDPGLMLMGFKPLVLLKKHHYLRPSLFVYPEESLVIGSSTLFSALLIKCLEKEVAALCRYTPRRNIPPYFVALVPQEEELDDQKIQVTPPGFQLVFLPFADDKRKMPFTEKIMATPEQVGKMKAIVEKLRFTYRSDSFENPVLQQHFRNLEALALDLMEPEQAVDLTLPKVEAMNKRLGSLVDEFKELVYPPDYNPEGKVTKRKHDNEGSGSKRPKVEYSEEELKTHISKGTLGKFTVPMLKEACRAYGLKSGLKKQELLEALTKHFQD
ATM, sequence (Q13315 whole entry, species assumed): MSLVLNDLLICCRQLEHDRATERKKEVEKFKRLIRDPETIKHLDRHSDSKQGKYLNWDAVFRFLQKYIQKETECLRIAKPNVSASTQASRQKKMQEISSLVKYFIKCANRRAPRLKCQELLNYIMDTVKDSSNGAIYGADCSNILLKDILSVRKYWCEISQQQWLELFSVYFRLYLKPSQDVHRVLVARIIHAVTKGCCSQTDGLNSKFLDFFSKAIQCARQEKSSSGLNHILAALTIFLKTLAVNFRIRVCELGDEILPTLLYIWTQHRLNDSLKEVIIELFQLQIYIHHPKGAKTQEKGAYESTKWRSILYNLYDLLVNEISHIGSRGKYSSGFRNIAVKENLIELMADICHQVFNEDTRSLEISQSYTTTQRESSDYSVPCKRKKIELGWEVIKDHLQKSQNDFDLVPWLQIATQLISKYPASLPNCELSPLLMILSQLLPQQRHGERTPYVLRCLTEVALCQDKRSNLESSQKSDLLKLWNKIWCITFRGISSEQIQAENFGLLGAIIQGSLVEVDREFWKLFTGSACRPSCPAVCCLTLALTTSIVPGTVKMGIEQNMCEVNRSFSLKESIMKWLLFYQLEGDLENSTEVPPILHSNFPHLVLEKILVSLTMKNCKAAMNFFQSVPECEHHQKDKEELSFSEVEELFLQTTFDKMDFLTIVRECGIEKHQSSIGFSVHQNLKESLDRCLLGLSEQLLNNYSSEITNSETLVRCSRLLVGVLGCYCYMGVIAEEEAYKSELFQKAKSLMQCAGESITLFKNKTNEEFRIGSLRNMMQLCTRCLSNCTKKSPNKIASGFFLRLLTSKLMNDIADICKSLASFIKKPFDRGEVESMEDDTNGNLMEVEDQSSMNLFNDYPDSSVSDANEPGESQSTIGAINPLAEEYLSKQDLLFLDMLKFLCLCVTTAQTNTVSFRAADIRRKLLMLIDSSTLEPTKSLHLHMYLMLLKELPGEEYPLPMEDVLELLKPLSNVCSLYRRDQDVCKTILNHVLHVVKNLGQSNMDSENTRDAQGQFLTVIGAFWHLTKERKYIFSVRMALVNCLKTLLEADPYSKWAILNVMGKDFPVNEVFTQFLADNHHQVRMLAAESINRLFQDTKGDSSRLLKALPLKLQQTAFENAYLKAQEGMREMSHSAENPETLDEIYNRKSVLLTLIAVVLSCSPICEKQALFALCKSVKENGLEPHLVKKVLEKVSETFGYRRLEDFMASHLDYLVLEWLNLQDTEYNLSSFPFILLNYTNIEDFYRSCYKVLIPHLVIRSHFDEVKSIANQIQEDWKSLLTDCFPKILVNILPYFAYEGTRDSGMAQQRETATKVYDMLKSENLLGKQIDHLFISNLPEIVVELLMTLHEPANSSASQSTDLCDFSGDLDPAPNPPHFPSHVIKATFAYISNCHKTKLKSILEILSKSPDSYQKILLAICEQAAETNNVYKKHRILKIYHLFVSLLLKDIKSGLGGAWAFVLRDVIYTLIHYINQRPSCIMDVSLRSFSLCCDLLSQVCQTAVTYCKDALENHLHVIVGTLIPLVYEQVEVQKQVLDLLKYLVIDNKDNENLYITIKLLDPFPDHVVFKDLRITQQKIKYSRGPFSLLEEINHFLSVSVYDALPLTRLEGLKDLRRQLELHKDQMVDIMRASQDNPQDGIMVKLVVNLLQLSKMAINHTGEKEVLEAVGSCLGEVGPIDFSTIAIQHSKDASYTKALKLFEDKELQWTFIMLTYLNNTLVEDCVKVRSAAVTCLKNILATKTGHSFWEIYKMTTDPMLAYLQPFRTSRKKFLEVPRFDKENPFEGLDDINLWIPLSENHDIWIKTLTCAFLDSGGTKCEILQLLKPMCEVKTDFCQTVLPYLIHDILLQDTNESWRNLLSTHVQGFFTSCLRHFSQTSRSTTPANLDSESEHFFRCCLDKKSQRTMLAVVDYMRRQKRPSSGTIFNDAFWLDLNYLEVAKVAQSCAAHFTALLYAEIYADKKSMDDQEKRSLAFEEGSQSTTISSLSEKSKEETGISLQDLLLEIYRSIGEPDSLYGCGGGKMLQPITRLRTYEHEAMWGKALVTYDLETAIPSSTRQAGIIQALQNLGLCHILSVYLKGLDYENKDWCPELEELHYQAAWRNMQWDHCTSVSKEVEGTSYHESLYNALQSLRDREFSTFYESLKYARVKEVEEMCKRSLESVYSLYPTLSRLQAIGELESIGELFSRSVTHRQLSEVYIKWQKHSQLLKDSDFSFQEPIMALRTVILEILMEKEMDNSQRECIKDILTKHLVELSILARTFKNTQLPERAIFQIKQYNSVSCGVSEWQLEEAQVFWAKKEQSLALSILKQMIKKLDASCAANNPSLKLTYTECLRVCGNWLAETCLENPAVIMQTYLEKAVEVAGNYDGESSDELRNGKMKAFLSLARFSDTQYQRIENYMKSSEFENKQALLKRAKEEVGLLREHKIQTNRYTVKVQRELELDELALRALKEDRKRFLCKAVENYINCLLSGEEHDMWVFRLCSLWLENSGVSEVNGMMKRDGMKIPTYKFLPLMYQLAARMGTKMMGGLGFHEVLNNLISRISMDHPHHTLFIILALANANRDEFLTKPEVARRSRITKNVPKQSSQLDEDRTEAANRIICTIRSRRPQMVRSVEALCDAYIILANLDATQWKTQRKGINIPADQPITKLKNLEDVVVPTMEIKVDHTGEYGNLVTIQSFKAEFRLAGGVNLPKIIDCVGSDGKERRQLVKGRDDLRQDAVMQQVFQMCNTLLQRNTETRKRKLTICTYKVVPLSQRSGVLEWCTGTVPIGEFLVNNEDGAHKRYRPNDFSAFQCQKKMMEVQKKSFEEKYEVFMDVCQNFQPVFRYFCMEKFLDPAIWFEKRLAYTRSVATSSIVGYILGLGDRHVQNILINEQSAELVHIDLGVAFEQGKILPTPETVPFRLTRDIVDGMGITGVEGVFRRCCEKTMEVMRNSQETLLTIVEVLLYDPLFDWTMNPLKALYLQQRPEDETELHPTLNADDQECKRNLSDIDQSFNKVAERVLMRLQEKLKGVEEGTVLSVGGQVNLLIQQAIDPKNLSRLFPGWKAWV

## HA-HMGA2 (HA-tagged wild-type high-mobility group A2 protein expressed from pcDNA3.1/HA-HMGA2 in HeLa cells) (from UniProt P52926 1-109)
[1]
  percentage of Ku80/HMGA2 interaction: 100%

## CC(=O)O[C@H]1C(=O)[C@@]2(C)[C@H]([C@H](OC(=O)c3ccccc3)[C@]3(O)C[C@H](OC(=O)[C@H](O)[C@@H](NC(=O)c4ccccc4)c4ccccc4)C(C)=C1C3(C)C)[C@]1(OC(C)=O)CO[C@@H]1C[C@@H]2O [Taxol]
[2]
  Taxol-induced cell growth inhibition, HeLa versus HeLa/HMGA2: no substantial difference in the response to Taxol between HeLa and HeLa/HMGA2 cells

## CCc1c2c(nc3ccc(OC(=O)N4CCC(N5CCCCC5)CC4)cc13)-c1cc3c(c(=O)n1C2)COC(=O)[C@]3(O)CC [irinotecan]
[3]; 72 hours
  difference in decrease of viability between Pa-4/HMGA2 and Pa-4 cells: little difference observed between the two cell types
[3]; 72 hours after treatment
  cell viability / growth inhibition: dose-dependent growth inhibition in both cell types

## HA-HMGA2(Δ66-109) (from UniProt P52926 1-65)
[4]
  decrease of the interaction with Ku80 against wild-type HMGA2: > 70%

## O=c1cc(N2CCOCC2)oc2c1ccc1ccccc12 [NU7026]
[5]; Pa-4/HMGA2 cells
  effect of pre-treatment on basal or Dox-induced H2AX phosphorylation: little or no effect
[5]; Pa-4 cells
  effect of pre-treatment on Dox-induced H2AX phosphorylation: attenuated
H2AX phosphorylation; HCC1419 cells, 2 μM Dox
  effect of pre-treatment on Dox-induced H2AX phosphorylation: downregulated
H2AX phosphorylation; HS578T cells, with or without 2 μM Dox
  effect of pre-treatment on H2AX phosphorylation: did not decrease H2AX phosphorylation in either the presence or absence of Dox treatment
ATM
  activity against ATM: inactive
ATR
  activity against ATR: inactive
DNA-PK
  selectivity for DNA-PK: highly selective for DNA-PK

## HA-HMGA2(Δ83-109) (from UniProt P52926 1-82)
[4]
  decrease of the interaction with Ku80 against wild-type HMGA2: > 50%

## Cn1c(=O)c2c(ncn2C)n(C)c1=O [caffeine]
Pa-4/HMGA2 cells; 4 mM caffeine or 1 μM Dox, 48 hours
  cell cycle distribution / cells in G2/M, single agent: decreased the number of cells in G2/M
Pa-4/HMGA2 cells; caffeine with Dox
  apoptosis with both caffeine and Dox: apoptosis levels greater than those observed after treatment with caffeine or Dox alone
Pa-4 cells
  effect on Dox-induced G2/M arrest: greatly reduced Dox-induced G2/M arrest

B1: HMGA2(Δ1-24): truncated HMGA2 carrying deletion of the N-terminus (protein, UniProt P52926 25-109, looked up, fragment)
chain: QKRGRGRPRKQQQEPTGEPSPKRPRGRPKGSKNKSPSKAAQKKAEATGEKRPRGRPRKWPQQVVQKKPAQEETEETSSQESAEED
modifications: HA tag
notes: truncated HMGA2 carrying deletion of the N-terminus
Ku80
  ability to interact with Ku80: retained the full ability to interact with Ku80
HeLa cells
  sensitivity of transfected HeLa cells to Dox: enhanced the sensitivity of HeLa cells to Dox

B2: HMGA2(2K/R): SUMOylation-defective HMGA2 mutant with Lys→Arg point mutations at residues 66 and 67 (protein, UniProt P52926 2-109, looked up, variant K66R K67R)
High mobility group protein …: SARGEGAGQPSTSAQGQPAAPAPQKRGRGRPRKQQQEPTGEPSPKRPRGRPKGSKNKSPSKAAQRRAEATGEKRPRGRPRKWPQQVVQKKPAQEETEETSSQESAEED
[6]
  effect on cytotoxicity elicited by Dox: partially reversed the cytotoxicity
  effect on cytotoxicity elicited by cisplatin: partially reversed the cytotoxicity

B3: HMGA2(4P/A): HMGA2 mutant with four Pro→Ala mutations at amino acid positions 48, 52, 76, and 80 (protein)
chain: MSARGEGAGQPSTSAQGQPAAPAPQKRGRGRPRKQQQEPTGEPSPKRARGRAKGSKNKSPSKAAQKKAEATGEKRARGRARKWPQQVVQKKPAQEETEETSSQESAEED
modifications: left off: small tags and cut ends
Ku80
  ability to interact with Ku80: almost completely abrogated the binding of HMGA2 to Ku80
HeLa cells
  sensitivity of transfected HeLa cells to Dox: relatively greater resistance to Dox-treatment

B4: HMGA2(Δ83-109): truncated HMGA2 carrying deletion of the C-terminus (protein, UniProt P52926 1-82, looked up, fragment)
chain: MSARGEGAGQPSTSAQGQPAAPAPQKRGRGRPRKQQQEPTGEPSPKRPRGRPKGSKNKSPSKAAQKKAEATGEKRPRGRPRK
modifications: HA tag
notes: truncated HMGA2 carrying deletion of the C-terminus
HeLa cells
  sensitivity of transfected HeLa cells to Dox: relatively greater resistance to Dox-treatment

Source: patent US20070160684A1, “Methods for increasing cancer cell chemosensitivity” (priority 2005, published 2007)
